Assay results from US11760754B2, “Heterocyclic mitochondrial activity inhibitors and uses thereof” (UNIVERSITÉ DE MONTRÉAL, priority 2017, dated 2023).
Read-outs that look alike come from different tables or passages of the source.

How the values were obtained:
OCI-AML3 cells = assay: OCI-AML3 cell growth inhibition, dose-response viability assay (CellTiterGlo); assay type: cell-based; details: Homo sapiens, OCI-AML-3, 144 h, read-out: AML-3 EC50
Method: Cell dose-response viability assays. […] In the initial screen, compounds were added to seeded cells in serial dilutions (10 dilutions, 1:3, starting from […] 20 μM), in duplicates.
(§1) The potency of the compounds of Example 6 at inhibiting OCI-AML3 cell growth was tested using a procedure similar to that described for Mutritinib in Example 1. […] Murine MLL-AF9 leukemia cells (female cells) were generated by infection with VSV-G-pseudotyped MSCV MLL-AF9 IRES Puro (subcloned from a construct by Frédéric Barabé, Laval U, Quebec, QC, Canada).
(§2) Compounds were added to seeded cells in serial dilutions from 10 μM to 0.5 nM, in duplicates or quadruplicates.

MLL-AF9 cells = assay: MLL-AF9 leukemia cell growth inhibition, dose-response viability assay (CellTiterGlo); assay type: cell-based, murine; details: Mus musculus, read-out: MLL-AF9 EC50
Method: as §1, §2

Row | EC50 (OCI-AML3 cells) | EC50 (MLL-AF9 cells; MLL-AF9, 120 h) | EC50 (OCI-AML3 cells; OCI-AML3 cells, 6 days of culture, CellTiterGlo) | EC50 (MLL-AF9 cells; 120 h, MLL-AF9 cells, 5 days of culture, CellTiterGlo) | Compound
1 | 1000 to 10000 nM | 1000 to 10000 nM |  |  | Fc1cc(C(F)(F)F)ccc1CCc1nc(COc2ccc(CCCCn3ccnn3)cc2)co1 [Compound 11, 4-((4-(4-(1H-1,2,3-triazol-1-yl)butyl)phenoxy)methyl)-2-(2-fluoro-4-(trifluoromethyl)phenethyl)oxazole]
2 | 100 to 500 nM | 100 to 500 nM |  |  | C(=C\c1nc(COc2ccc(CCCCn3ccnn3)cc2)co1)/c1ccccc1 [Compound 47, (E)-4-((4-(4-(1H-1,2,3-triazol-1-yl)butyl)phenoxy)methyl)-2-styryloxazole]
3 | 1000 to 10000 nM | 1000 to 10000 nM |  |  | CCOC(=O)c1cn(CCCCc2ccc(OCc3coc(/C=C/c4ccc(C(F)(F)F)cc4)n3)cc2)nn1 [Compound 114, ethyl (E)-1-(4-(4-((2-(4-(trifluoromethyl)styryl)oxazol-4-yl)methoxy)phenyl)butyl)-1H-1,2,3-triazole-4-carboxylate]
4 | 100 to 500 nM | < 50 nM |  |  | Fc1cc(/C=C/c2nc(COc3ccc(CCCCn4ccnn4)cc3)co2)cc(F)c1F [Compound 120, (E)-4-((4-(4-(1H-1,2,3-triazol-1-yl)butyl)phenoxy)methyl)-2-(3,4,5-trifluorostyryl)oxazole]
5 | 50 to 100 nM | < 50 nM |  |  | O=[N+]([O-])c1ccc(/C=C/c2nc(COc3ccc(CCCCn4ccnn4)cc3)co2)c(F)c1 [Compound 65, (E)-4-((4-(4-(1H-1,2,3-triazol-1-yl)butyl)phenoxy)methyl)-2-(2-fluoro-4-nitrostyryl)oxazole]
6 | 500 to 1000 nM | 100 to 500 nM |  |  | Fc1ncccc1/C=C/c1nc(COc2ccc(CCCCn3ccnn3)cc2)co1 [Compound 83, (E)-4-((4-(4-(1H-1,2,3-triazol-1-yl)butyl)phenoxy)methyl)-2-(2-(2-fluoropyridin-3-yl)vinyl)oxazole]
7 | 1000 to 10000 nM | 1000 to 10000 nM |  |  | FC(F)(F)c1ccc(C2CC2c2nc(COc3ccc(CCCCn4ccnn4)cc3)co2)cc1 (centres unmarked) [Compound 76, 4-((4-(4-(1H-1,2,3-triazol-1-yl)butyl)phenoxy)methyl)-2-(2-(4-(trifluoromethyl)phenyl)cyclopropyl)oxazole]
8 | 100 to 500 nM | 100 to 500 nM |  |  | Fc1cc(C(F)(F)F)ccc1/C=C/c1nc(COc2ccc(CCCCn3ccnn3)cc2)cs1 [Compound 131, (E)-4-((4-(4-(1H-1,2,3-triazol-1-yl)butyl)phenoxy)methyl)-2-(2-fluoro-4-(trifluoromethyl)styryl)thiazole]
9 | 1000 to 10000 nM | > 10000 nM |  |  | COC(=O)c1coc(COc2ccc(CCCCn3ccnn3)cc2)n1 [Compound 77, Methyl 2-((4-(4-(1H-1,2,3-triazol-1-yl)butyl)phenoxy)methyl)oxazole-4-carboxylate]
10 | 1000 to 10000 nM | 100 to 500 nM |  |  | FC(F)(F)c1ccc(/C=C/c2nc(COc3ccc(CCCn4ccnn4)cc3)co2)cc1 [Compound 50, (E)-4-((4-(3-(1H-1,2,3-triazol-1-yl)propyl)phenoxy)methyl)-2-(4-(trifluoromethyl)styryl)oxazole]
11 | 100 to 500 nM | 100 to 500 nM |  |  | Fc1ccc(/C=C/c2nc(COc3ccc(CCCCn4ccnn4)cc3)co2)c(Cl)c1 [Compound 117, (E)-4-((4-(4-(1H-1,2,3-triazol-1-yl)butyl)phenoxy)methyl)-2-(2-chloro-4-fluorostyryl)oxazole]
12 | 50 to 100 nM | 100 to 500 nM |  |  | COC(=O)c1ccc(/C=C/c2nc(COc3ccc(CCCCn4ccnn4)cc3)co2)c(F)c1 [Compound 125, methyl (E)-4-(2-(4-((4-(4-(1H-1,2,3-triazol-1-yl)butyl)phenoxy)methyl)oxazol-2-yl)vinyl)-3-fluorobenzoate]
13 | 1000 to 10000 nM | > 10000 nM |  |  | FC(F)(F)c1ccccc1/C=C/c1nc(COc2ccc(CCCCn3ccnn3)cc2)co1 [Compound 44, (E)-4-((4-(4-(1H-1,2,3-triazol-1-YI)butyl)phenoxy)methyl)-2-(2-(trifluoromethyl)styryl)oxazole]
14 | 500 to 1000 nM | 500 to 1000 nM |  |  | Fc1cc(C(F)(F)F)ccc1/C=C/c1nc(COc2ccc(CCCCn3ccnc3)cc2)co1 [Compound 100, (E)-4-((4-(4-(1H-imidazol-1-yl)butyl)phenoxy)methyl)-2-(2-fluoro-4-(trifluoromethyl)styryl)oxazole]
15 | 1000 to 10000 nM | 500 to 1000 nM |  |  | Fc1cc(C(F)(F)F)ccc1/C=C/c1nc(COc2ccc(CCCCn3cncn3)cc2)co1 [Compound 88]
16 | 500 to 1000 nM | 100 to 500 nM |  |  | C#CCNC(=O)CCCCc1cn(CCCCc2ccc(OCc3coc(/C=C/c4ccc(C(F)(F)F)cc4)n3)cc2)nn1 [Compound 12, (E)-N-(prop-2-yn-1-yl)-5-(1-(4-(4-((2-(4-(trifluoromethyl)styryl)oxazol-4-yl)methoxy)phenyl)butyl)-1H-1,2,3-triazol-4-yl)pentanamide]

Row | EC50 (OCI-AML3 cells) | EC50 (MLL-AF9 cells; MLL-AF9, 120 h) | EC50 (OCI-AML3 cells; OCI-AML3 cells, 6 days of culture, CellTiterGlo) | EC50 (MLL-AF9 cells; 120 h, MLL-AF9 cells, 5 days of culture, CellTiterGlo) | Compound
17 | 1000 to 10000 nM | 1000 to 10000 nM |  |  | FC(F)(F)c1ccc(-c2ccc(COc3ccc(CCCCn4ccnn4)cc3)cn2)cc1 [Compound 75]
18 | 1000 to 10000 nM | 100 to 500 nM |  |  | O=C(CCCn1ccnn1)c1ccc(OCc2coc(/C=C/c3ccc(C(F)(F)F)cc3)n2)cc1 [Compound 16, (E)-4-(1H-1,2,3-triazol-1-yl)-1-(4-((2-(4-(trifluoromethyl)styryl)oxazol-4-yl)methoxy)phenyl)butan-1-one]
19 | 1000 to 10000 nM | 500 to 1000 nM |  |  | FC(F)(F)c1ccc(/C=C/c2ccc(COc3ccc(CCCCn4ccnn4)cc3)cc2)cc1 [Compound 57, (E)-1-(4-(4-((4-(4-(trifluoromethyl)styryl)benzyl)oxy)phenyl)butyl)-1H-1,2,3-triazole]
20 | 100 to 500 nM | 100 to 500 nM |  |  | CS(=O)(=O)NCCc1nccn1CCCCc1ccc(OCc2coc(/C=C/c3ccc(C(F)(F)F)cc3)n2)cc1 [Compound 54, (E)-N-(2-(1-(4-(4-((2-(4-(trifluoromethyl)styryl)oxazol-4-yl)methoxy)phenyl)butyl)-1H-imidazol-2-yl)ethyl)methanesulfonamide]
21 | 1000 to 10000 nM | 500 to 1000 nM |  |  | CN(C)c1cccc2c(S(=O)(=O)NCCc3cn(CCCCc4ccc(OCc5coc(/C=C/c6ccc(C(F)(F)F)cc6)n5)cc4)nn3)cccc12 [Compound 31, (E)-5-(dimethylamino)-N-(2-(1-(4-(4-((2-(4-(trifluoromethyl)styryl)oxazol-4-yl)methoxy)phenyl)butyl)-1H-1,2,3-triazol-4-yl)ethyl)naphthalene-1-sulfonamide]
22 | 100 to 500 nM | 50 to 100 nM |  |  | Fc1cc(C(F)(F)F)ccc1/C=C/c1nc(COc2ccc(CCCCn3ccnn3)nc2)co1 [Compound 133, (E)-4-(((6-(4-(1H-1,2,3-triazol-1-yl)butyl)pyridin-3-yl)oxy)methyl)-2-(2-fluoro-4-(trifluoromethyl)styryl)oxazole]
23 | 100 to 500 nM | 100 to 500 nM |  |  | Clc1ccc(/C=C/c2nc(COc3ccc(CCCCn4ccnn4)cc3)co2)c(Cl)c1 [Compound 119, (E)-4-((4-(4-(1H-1,2,3-triazol-1-yl)butyl)phenoxy)methyl)-2-(2,4-dichlorostyryl)oxazole]
24 | < 50 nM | < 50 nM |  |  | O=[N+]([O-])c1ccc2cc(-c3nc(COc4ccc(CCCCn5ccnn5)cc4)co3)[nH]c2c1 [Compound 129, 4-((4-(4-(1H-1,2,3-triazol-1-yl)butyl)phenoxy)methyl)-2-(6-nitro-1H-indol-2-yl)oxazole]
25 | 1000 to 10000 nM | 500 to 1000 nM |  |  | OCCc1nccn1CCCCc1ccc(OCc2coc(/C=C/c3ccc(C(F)(F)F)cc3)n2)cc1 [Compound 51, (E)-2-(1-(4-(4-((2-(4-(trifluoromethyl)styryl)oxazol-4-yl)methoxy)phenyl)butyl)-1H-imidazol-2-yl)ethanol]
26 | 1000 to 10000 nM | 1000 to 10000 nM |  |  | CN(C)C(=O)OCCCCc1ccc(OCc2coc(/C=C/c3ccc(C(F)(F)F)cc3)n2)cc1 [Compound 36, (E)-4-(4-((2-(4-(trifluoromethyl)styryl)oxazol-4-yl)methoxy)phenyl)butyl dimethylcarbamate]
27 | 100 to 500 nM | 100 to 500 nM |  |  | O=C(NC1CCCC1)OCCc1cn(CCCCc2ccc(OCc3coc(/C=C/c4ccc(C(F)(F)F)cc4F)n3)cc2)nn1 [Compound 97, (E)-2-(1-(4-(4-((2-(2-fluoro-4-(trifluoromethyl)styryl)oxazol-4-yl)methoxy)phenyl)butyl)-1H-1,2,3-triazol-4-yl)ethyl cyclopentylcarbamate]
28 | 1000 to 10000 nM | 500 to 1000 nM |  |  | Fc1cc(C(F)(F)F)ccc1/C=C/c1nc(/C=C/c2ccc(CCCCn3ccnn3)cc2)co1 [Compound 111, 4-((E)-4-(4-(1H-1,2,3-triazol-1-yl)butyl)styryl)-2-((E)-2-fluoro-4-(trifluoromethyl)styryl) oxazole]
29 |  |  | 1000 to 10000 nM | 100 to 500 nM | FC(F)(F)c1ccc(-c2nc(COc3ccc(CCCCn4ccnn4)cc3)co2)cc1 [Compound 28, 4-((4-(4-(1H-1,2,3-triazol-1-yl)butyl)phenoxy)methyl)-2-(4-(trifluoromethyl)phenyl)oxazole]
30 | < 50 nM | < 50 nM |  |  | N#Cc1ccc(/C=C/c2nc(COc3ccc(CCCCn4ccnn4)cc3)co2)c(F)c1 [Compound 122, (E)-4-(2-(4-((4-(4-(1H-1,2,3-triazol-1-yl)butyl)phenoxy)methyl)oxazol-2-yl)vinyl)-3-fluorobenzonitrile]
31 | 500 to 1000 nM | 100 to 500 nM |  |  | O=C(Nc1ccc(CCCCn2ccnn2)cc1)c1coc(/C=C/c2ccc(C(F)(F)F)cc2)n1 [Compound 30, (E)-N-(4-(4-(1H-1,2,3-triazol-1-yl)butyl)phenyl)-2-(4-(trifluoromethyl)styryl)oxazole-4-carboxamide]
